Our source for the melting point values is patent US7902354B2, “Lapachone compounds and methods of use thereof” (ArQule, Inc., priority 2006, dated 2011).

Molecules are shown by their SMILES.

As usually defined, the melting point is the temperature, or range, at which the solid turns liquid.

`O=C1C(=O)c2ccc(-c3ccncc3)cc2C2=C1SCC1(CCNCC1)O2`: the melting point lay in the range of 223 to 228 °C.

With `CC(O)(Cc1ccccc1)CN1CCC2(CC1)CSC1=C(O2)c2ccccc2C(=O)C1=O` (stereo not drawn), the melting point was in the range of 186 to 187 °C.

As for `O=C1C(=O)c2ccc(F)cc2C2=C1SCC1(CCN(C[C@@H](O)Cc3ccccc3)CC1)O2`, the melting point fell in the range of 77 to 79 °C. The value for `O=C1C(=O)c2ccccc2C2=C1SCC1(CCN(C[C@H](O)COc3ccc4ccccc4c3)CC1)O2` was 164 to 167 °C; that for `O=C1C(=O)c2ccccc2C2=C1SCC1(CCSCC1)O2` was 221 to 223 °C; that for `O=C1C(=O)c2ccccc2C2=C1SCC1(CCN(CCCOc3ccc(F)cc3)CC1)O2` was 164 to 165 °C. `COc1ccc2c(c1)C(=O)C(=O)C1=C2OC2(CCN(C[C@H](O)COc3ccc(Cl)cc3)CC2)CS1`: the melting point was 189 to 191 °C. In the case of `COc1ccc2c(c1)C(=O)C(=O)C1=C2OC2(CCN(C[C@H](O)COc3ccc(F)cc3)CC2)CS1` it was 189 to 191 °C; in that of `CC(C)(C)OC(=O)N1CCC2(CC1)CSC1=C(O2)c2cc(-c3ccccc3C(F)(F)F)ccc2C(=O)C1=O`, 223 to 225 °C; in that of `CCCC(C)N1CCC2(CC1)CSC1=C(O2)c2ccccc2C(=O)C1=O` (stereo not drawn), 109 to 111 °C.

`O=C1C(=O)c2ccccc2C2=C1SCC1(CCC3(CC1)OCCO3)O2` showed a melting point of 251 to 252 °C. The value for `CC(C)(C)OC(=O)N1CCC2(CC1)CSC1=C(O2)c2cc(N3CCOCC3)ccc2C(=O)C1=O` was 243 to 244 °C; that for `COc1ccc2c(c1)C1=C(SCC3(CCN(C(=O)c4cccc(Cl)c4)CC3)O1)C(=O)C2=O` was 125 to 127 °C; that for `O=C1C(=O)c2ccc(Br)cc2C2=C1SCC1(CCN(C[C@H](O)COc3ccc4cc(Br)ccc4c3)CC1)O2` was 104 to 105 °C.

`O=C1C(=O)c2ccc(Br)cc2C2=C1SCC1(CCN(C(=O)Oc3cccc(C(F)(F)F)c3)CC1)O2`: the melting point is 210 to 211 °C.

Consider `CC(C)(C)c1ccc(OC[C@@H](O)CN2CCC3(CC2)CSC2=C(O3)c3cc(N4CCOCC4)ccc3C(=O)C2=O)cc1`, for which the melting point is 107 to 109 °C.

The compound `O=C1C(=O)c2ccc(Br)cc2C2=C1SCC1(CCN(C(=O)c3cccc(Cl)c3)CC1)O2` displayed a melting point of 135 to 140 °C. The value for `CC(C)(C)c1ccc(OC[C@@H](O)CN2CCC3(CC2)CSC2=C(O3)c3cc(F)ccc3C(=O)C2=O)cc1` was 114 to 116 °C; that for `O=C1C(=O)c2ccccc2C2=C1SCC1(CCN(C(=O)NS(=O)(=O)c3ccc(F)cc3)CC1)O2` was 173 to 180 °C. The value for `CC(C)(C)c1ccc(OC[C@H](O)CN2CCC3(CC2)CSC2=C(O3)c3cc(-c4ccccc4)ccc3C(=O)C2=O)cc1` was 94 to 97 °C; that for `O=C1C(=O)c2ccccc2C2=C1SCC1(CCN(Cc3ccc(F)cc3F)CC1)O2` was 104 to 107 °C. For the compound `O=C1C(=O)c2ccc(Br)cc2C2=C1SCC1(CCN(C[C@@H](O)Cc3ccccc3)CC1)O2`, the melting point lay in the range of 82 to 83 °C. In the case of `O=C1C(=O)c2ccccc2C2=C1SCC1(CCN(CC(O)Cc3ccc(Cl)cc3)CC1)O2` (stereo not drawn) it was 195 to 196 °C; in that of `COc1ccc2c(c1)C(=O)C(=O)C1=C2OC2(CCN(C[C@@H](O)COc3ccc(C(C)(C)C)cc3)CC2)CS1`, 188 to 190 °C; in that of `CC(C)(C)OC(=O)N1CCC2(CC1)CSC1=C(O2)c2cc(-c3cccc(C(F)(F)F)c3)ccc2C(=O)C1=O`, 231 to 233 °C.

The compound `O=C1C(=O)c2ccc(-c3ccccc3)cc2C2=C1SCC1(CCN(C(=O)Oc3cccc(C(F)(F)F)c3)CC1)O2` had a melting point of 188 to 190 °C. In the case of `CC(C)(C)c1ccc(OC[C@@H](O)CN2CCC3(CC2)CSC2=C(O3)c3cc(Br)ccc3C(=O)C2=O)cc1` it was 150 to 152 °C; in that of `O=C1C(=O)c2ccc(-c3ccncc3)cc2C2=C1SCC1(CCN(C(=O)c3cccc(Cl)c3)CC1)O2`, 265 to 267 °C. The value for `CC(C)OCC(O)CN1CCC2(CC1)CSC1=C(O2)c2ccccc2C(=O)C1=O` (stereo not drawn) was 97 to 99 °C. The compound `O=C1C(=O)c2ccc(Cl)cc2C2=C1SCC1(CCN(C[C@@H](O)Cc3ccccc3)CC1)O2` returned a melting point of 92 to 96 °C.

In the case of `O=C1C(=O)c2ccc(-c3ccccc3)cc2C2=C1SCC1(CCN(C[C@@H](O)COc3ccc(Cl)cc3)CC1)O2`, the melting point lay within 111 to 112 °C.

`O=C1C(=O)c2ccc(Br)cc2C2=C1SCC1(CCN(C[C@H](O)COc3ccc(Cl)cc3)CC1)O2` gave a melting point of 150 to 152 °C. In the case of `COc1ccc2c(c1)C1=C(SCC3(CCN(C[C@H](O)COc4ccc(Cl)cc4)CC3)O1)C(=O)C2=O` it was 109 to 110 °C; in that of `O=C1C(=O)c2ccccc2C2=C1SCC1(CCN(C3CCN(C(=O)Oc4cccc(C(F)(F)F)c4)CC3)CC1)O2`, 70 to 73 °C.

`COc1ccc2c(c1)C(=O)C(=O)C1=C2OC2(CCN(C[C@H](O)COc3ccc(C(C)(C)C)cc3)CC2)CS1`: the melting point lay in the range of 188 to 190 °C. In the case of `O=C1C(=O)c2ccc(Cl)cc2C2=C1SCC1(CCN(C[C@H](O)Cc3ccccc3)CC1)O2` it was 92 to 93 °C; in that of `O=C1C(=O)c2ccc(-c3cccnc3)cc2C2=C1SCC1(CCNCC1)O2`, 213 to 215 °C; in that of `O=C1C(=O)c2ccc(-c3ccc(C(F)(F)F)cc3)cc2C2=C1SCC1(CCNCC1)O2`, 190 to 240 °C. In the case of `O=C1C(=O)c2ccccc2C2=C1SCC1(CCN(C(=O)/C=C/c3ccccc3Cl)CC1)O2` it was 110 to 115 °C. In the case of `O=C1C(=O)c2ccccc2C2=C1SCC1(CCOCC1)O2` it was 195 to 197 °C.

Consider `O=C1C(=O)c2ccccc2C2=C1SCC1(CCN(C(=O)c3ccc(-n4cccn4)cc3)CC1)O2`, for which the melting point lay within 299 to 300 °C. `O=C1C(=O)c2ccc(-c3ccccc3)cc2C2=C1SCC1(CCN(C[C@H](O)COc3ccc(F)cc3)CC1)O2` registered a melting point of 173 to 175 °C. The value for `CC(C)(C)c1ccc(OC[C@@H](O)CN2CCC3(CC2)CSC2=C(O3)c3cc(-c4ccccc4)ccc3C(=O)C2=O)cc1` was 151 to 152 °C. The value for `COc1ccc2c(c1)C1=C(SCC3(CCN(C[C@H](O)COc4ccc(F)cc4)CC3)O1)C(=O)C2=O` was 80 to 81 °C; that for `CCC(O)CN1CCC2(CC1)CSC1=C(O2)c2ccccc2C(=O)C1=O` (stereo not drawn) was 180 to 182 °C.

In turn, `Cc1ccc(S(=O)(=O)NC(=O)N2CCC3(CC2)CSC2=C(O3)c3ccccc3C(=O)C2=O)cc1` showed a melting point of 153 to 158 °C. The value for `CC(C)(C)c1ccc(OC[C@@H](O)CN2CCC3(CC2)CSC2=C(O3)c3cc(Cl)ccc3C(=O)C2=O)cc1` was 94 to 97 °C.

In turn, `O=C1C(=O)c2ccc(-c3ccccc3)cc2C2=C1SCC1(CCN(Cc3ccc(F)cc3)CC1)O2` registered a melting point of 197 to 198 °C.

Turning to `O=C1C(=O)c2ccccc2C2=C1SCC1(CCN(C[C@H](O)COc3ccc4cc(Br)ccc4c3)CC1)O2`, the melting point was 183 to 184 °C. The value for `O=C1C(=O)c2ccccc2C2=C1SCC1(CCN(CCCOc3ccc(Cl)cc3)CC1)O2` was 130 to 132 °C; that for `CC(C)(C)c1ccc(OC[C@@H](O)CN2CCCC3(CSC4=C(O3)c3ccccc3C(=O)C4=O)C2)cc1` (stereo partly drawn) was 90 to 92 °C.
